Results from patent US12023333B2, “Phenyl-sulfamoyl.benzoyc acids as ERAP1 modulators” (GREY WOLF THERAPEUTICS LIMITED, priority 2019, dated 2024).

Target: T1, Purified ERAP1(37-941)-10His (ERAP1) (Homo sapiens, UniProt Q9NZ08)
T1 construct: Purified ERAP1(37-941)-10His (ERAP1); 10His (C)
Assay: ERAP1 mediated hydrolysis of an amide substrate measured in a biochemical system (10-mer decapeptide substrate)
Conditions: 10-mer substrate, 23° C. for 1 h, excitation 279 nm and emission 355 nm; read-out: IC50 vs Decapeptide WRVYEKC(Dnp)ALK-acid (where Dnp is Dinitrophenyl maleimide) (10-mer)
Outline: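 ERAP1(37-941)-10His preincubated with compound in 25 mM Bis-tris propane, 0.05% HPMC, pH 7.75, then reacted 1 h at 23 °C with 10-mer WRVYEKC(Dnp)ALK (100 μM solution added in equal volume). Fluorescence read at ex 279/em 355 nm; IC50 from 4-parameter fit.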

T1 sequence (Q9NZ08 37-941): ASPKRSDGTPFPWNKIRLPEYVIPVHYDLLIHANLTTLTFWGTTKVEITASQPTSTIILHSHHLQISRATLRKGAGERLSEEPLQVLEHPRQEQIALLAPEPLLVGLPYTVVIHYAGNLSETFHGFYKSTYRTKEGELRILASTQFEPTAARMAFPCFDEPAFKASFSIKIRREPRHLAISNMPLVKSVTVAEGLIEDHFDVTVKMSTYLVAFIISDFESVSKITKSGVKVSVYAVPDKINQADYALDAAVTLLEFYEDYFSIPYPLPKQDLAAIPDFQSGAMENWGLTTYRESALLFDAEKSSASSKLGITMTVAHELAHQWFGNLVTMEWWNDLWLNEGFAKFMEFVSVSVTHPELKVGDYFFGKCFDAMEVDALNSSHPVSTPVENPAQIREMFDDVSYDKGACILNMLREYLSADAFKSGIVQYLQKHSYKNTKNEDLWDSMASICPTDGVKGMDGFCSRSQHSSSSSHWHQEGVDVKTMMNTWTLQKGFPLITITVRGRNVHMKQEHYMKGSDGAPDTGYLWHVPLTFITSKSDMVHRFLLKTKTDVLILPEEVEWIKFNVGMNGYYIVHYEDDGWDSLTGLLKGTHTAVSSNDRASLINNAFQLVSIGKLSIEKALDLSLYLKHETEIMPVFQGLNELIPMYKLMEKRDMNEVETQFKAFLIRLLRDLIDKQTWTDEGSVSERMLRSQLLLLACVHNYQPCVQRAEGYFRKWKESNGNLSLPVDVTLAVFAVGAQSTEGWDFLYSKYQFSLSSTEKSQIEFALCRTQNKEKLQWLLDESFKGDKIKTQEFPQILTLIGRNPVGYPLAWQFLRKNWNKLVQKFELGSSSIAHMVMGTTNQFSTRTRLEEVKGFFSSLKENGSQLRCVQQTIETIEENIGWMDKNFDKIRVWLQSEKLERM

IC50	Structure (SMILES)
< 500 nM	N#Cc1ccc(-c2ccsn2)c(NS(=O)(=O)c2cc(C(=O)O)ccc2C2CC2)c1 [Example 170, 3-(N-(5-cyano-2-(isothiazol-3-yl)phenyl)sulfamoyl)-4-cyclopropylbenzoic acid]
< 500 nM	CS(=O)(=O)c1cc(NS(=O)(=O)c2cc(C(=O)O)ccc2C2CC2)c(-c2ccccn2)cc1Cl [Example 171, 3-(N-(4-chloro-5-(methylsulfonyl)-2-(pyridin-2-yl)phenyl)sulfamoyl)-4-cyclopropylbenzoic acid]
< 500 nM	CS(=O)(=O)c1cc(NS(=O)(=O)c2cc(C(=O)O)ccc2C2CC2)c(-c2ccccn2)cc1F [Example 172, 4-cyclopropyl-3-(N-(4-fluoro-5-(methylsulfonyl)-2-(pyridin-2-yl)phenyl)sulfamoyl)benzoic acid]
< 5000 nM	CC(C)(C)c1ccc(C(=O)O)cc1S(=O)(=O)Nc1cc(C#N)ccc1-c1ccccn1 [Example 173, 4-(tert-butyl)-3-(N-(5-cyano-2-(pyridin-2-yl)phenyl)sulfamoyl) benzoic acid]
> 5000 nM	N#Cc1ccc(-c2ccccn2)c(NS(=O)(=O)c2cc(C(=O)O)ccc2C#N)c1 [Example 175, 4-cyano-3-(N-(5-cyano-2-(pyridin-2-yl)phenyl)sulfamoyl)benzoic acid]
< 500 nM	Cc1cc(C#N)cc(NS(=O)(=O)c2cc(C(=O)O)ccc2C2CC2)c1-c1ccccn1 [Example 176, 3-(N-(5-cyano-3-methyl-2-(pyridin-2-yl)phenyl)sulfamoyl)-4-cyclopropylbenzoic acid]
< 500 nM	Cc1cc(C#N)cc(NS(=O)(=O)c2cc(C(=O)O)ccc2C2CC2)c1-c1ccc(Cl)s1 [Example 177, 3-(N-(2-(5-chlorothiophen-2-yl)-5-cyano-3-methylphenyl)sulfamoyl)-4-cyclopropylbenzoic acid]
< 500 nM	N#Cc1cc(NS(=O)(=O)c2cc(C(=O)O)ccc2C2CC2)c(-c2cscn2)cc1Cl [Example 178, 3-(N-(4-chloro-5-cyano-2-(thiazol-4-yl)phenyl)sulfamoyl)-4-cyclopropylbenzoic acid]
< 500 nM	N#Cc1cc(NS(=O)(=O)c2cc(C(=O)O)ccc2C2CC2)c(-c2ncccn2)cc1Cl [Example 179, 3-(N-(4-chloro-5-cyano-2-(pyrimidin-2-yl)phenyl)sulfamoyl)-4-cyclopropylbenzoic acid]
< 500 nM	N#Cc1cc(NS(=O)(=O)c2cc(C(=O)O)ccc2C2CC2)c(-c2ccsn2)cc1Cl [Example 180, 3-(N-(4-chloro-5-cyano-2-(isothiazol-3-yl)phenyl)sulfamoyl)-4-cyclopropylbenzoic acid]
< 500 nM	N#Cc1cc(NS(=O)(=O)c2cc(C(=O)O)ccc2C2CC2)c(-c2ccsn2)cc1F [Example 181, 3-(N-(5-cyano-4-fluoro-2-(isothiazol-3-yl)phenyl)sulfamoyl)-4-cyclopropylbenzoic acid]
< 500 nM	N#Cc1cc(NS(=O)(=O)c2cc(C(=O)O)ccc2C2CC2)c(-c2ncccn2)cc1F [Example 182, 3-(N-(5-cyano-4-fluoro-2-(pyrimidin-2-yl)phenyl)sulfamoyl)-4-cyclopropylbenzoic acid]
< 500 nM	N#Cc1cc(NS(=O)(=O)c2cc(C(=O)O)ccc2C2CC2)c(-c2nccs2)cc1F [Example 183, 3-(N-(5-cyano-4-fluoro-2-(thiazol-2-yl)phenyl)sulfamoyl)-4-cyclopropylbenzoic acid]
< 500 nM	O=C(O)c1ccc(C2CC2)c(S(=O)(=O)Nc2cc(-c3ccns3)c(F)cc2-c2ccccn2)c1 [Example 184, 4-cyclopropyl-3-(N-(4-fluoro-5-(isothiazol-5-yl)-2-(pyridin-2-yl)phenyl)sulfamoyl)benzoic acid]
< 500 nM	Cn1nccc1-c1cc(NS(=O)(=O)c2cc(C(=O)O)ccc2C2CC2)c(-c2ccccn2)cc1F [Example 185, 4-cyclopropyl-3-(N-(4-fluoro-5-(1-methylpyrazol-5-yl)-2-(pyridin-2-yl)phenyl)sulfamoyl)benzoic acid]
< 500 nM	Cn1ncnc1-c1cc(NS(=O)(=O)c2cc(C(=O)O)ccc2C2CC2)c(-c2ccccn2)cc1F [Example 186, 4-cyclopropyl-3-(N-(4-fluoro-5-(1-methyl-1,2,4-triazol-5-yl)-2-(pyridin-2-yl)phenyl)sulfamoyl)benzoic acid]
< 500 nM	O=C(O)c1ccc(C2CC2)c(S(=O)(=O)Nc2cc(-n3cnnn3)c(Cl)cc2-c2ccccn2)c1 [Example 187, 3-(N-(4-chloro-2-(pyridin-2-yl)-5-(tetrazol-1-yl)phenyl)sulfamoyl)-4-cyclopropylbenzoic acid]
< 500 nM	Cn1nccc1-c1cc(NS(=O)(=O)c2cc(C(=O)O)ccc2C2CC2)c(-c2ccccn2)cc1Cl [Example 188, 3-(N-(4-chloro-5-(1-methylpyrazol-5-yl)-2-(pyridin-2-yl)phenyl)sulfamoyl)-4-cyclopropylbenzoic acid]
< 500 nM	Cn1ncnc1-c1cc(NS(=O)(=O)c2cc(C(=O)O)ccc2C2CC2)c(-c2ccccn2)cc1Cl [Example 189, 3-(N-(4-chloro-5-(1-methyl-1,2,4-triazol-5-yl)-2-(pyridin-2-yl)phenyl)sulfamoyl)-4-cyclopropylbenzoic acid]
< 500 nM	O=C(O)c1ccc(C2CC2)c(S(=O)(=O)Nc2cc(-n3cnnn3)c(F)cc2-c2ccccn2)c1 [Example 190, 4-cyclopropyl-3-(N-(4-fluoro-2-(pyridin-2-yl)-5-(tetrazol-1-yl)phenyl)sulfamoyl)benzoic acid]
< 500 nM	O=C(O)c1ccc(C2CC2)c(S(=O)(=O)Nc2cc(-c3ccns3)c(Cl)cc2-c2ccccn2)c1 [Example 191, 3-(N-(4-chloro-5-(isothiazol-5-yl)-2-(pyridin-2-yl)phenyl)sulfamoyl)-4-cyclopropylbenzoic acid]
< 500 nM	N#Cc1cc(NS(=O)(=O)c2cc(C(=O)O)ccc2C2CC2)c(-c2nccs2)cc1Cl [Example 192, 3-(N-(4-chloro-5-cyano-2-(thiazol-2-yl)phenyl)sulfamoyl)-4-cyclopropylbenzoic acid]

The next lines start with the compound.

Structure (SMILES)	IC50
O=C(O)c1ccc(C2CC2)c(S(=O)(=O)Nc2cc(C(F)(F)F)c(Cl)cc2-n2cccc2)c1 [Example 156, 3-(N-(4-chloro-2-(pyrrol-1-yl)-5-(trifluoromethyl)phenyl)sulfamoyl)-4-cyclopropylbenzoic acid]	< 500 nM
N#Cc1cc(NS(=O)(=O)c2cc(C(=O)O)ccc2C2CC2)c(-n2cccc2)cc1F [Example 157, 3-(N-(5-cyano-4-fluoro-2-(pyrrol-1-yl)phenyl)sulfamoyl)-4-cyclopropylbenzoic acid]	< 500 nM
COc1ccc(C(=O)O)cc1S(=O)(=O)Nc1cc(C(F)(F)F)c(Cl)cc1-n1cccc1 [Example 158, 3-(N-(4-chloro-2-(pyrrol-1-yl)-5-(trifluoromethyl)phenyl)sulfamoyl)-4-methoxybenzoic acid]	< 500 nM
N#Cc1ccc(-c2cscn2)c(NS(=O)(=O)c2cc(C(=O)O)ccc2C2CC2)c1 [Example 159, 3-(N-(5-cyano-2-(thiazol-4-yl)phenyl)sulfamoyl)-4-cyclopropylbenzoic acid]	< 500 nM
Cc1oncc1-c1ccc(-c2ccc(F)s2)c(NS(=O)(=O)c2cc(C(=O)O)ccc2C2CC2)c1 [Example 160, 4-cyclopropyl-3-(N-(2-(5-fluorothiophen-2-yl)-5-(5-methylisoxazol-4-yl)phenyl)sulfamoyl)benzoic acid]	< 500 nM
N#Cc1cc(NS(=O)(=O)c2cc(C(=O)O)ccc2C2CC2)c(-n2cccc2)cc1Cl [Example 161, 3-(N-(4-chloro-5-cyano-2-(pyrrol-1-yl)phenyl)sulfamoyl)-4-cyclopropylbenzoic acid]	< 500 nM
COc1ccc(C(=O)O)cc1S(=O)(=O)Nc1cc(C(F)(F)F)c(F)cc1-n1cccc1 [Example 162, 3-(N-(4-fluoro-2-(pyrrol-1-yl)-5-(trifluoromethyl)phenyl)sulfamoyl)-4-methoxybenzoic acid]	< 500 nM
N#Cc1ccc(-c2nccs2)c(NS(=O)(=O)c2cc(C(=O)O)ccc2C2CC2)c1 [Example 163, 3-(N-(5-cyano-2-(thiazol-2-yl)phenyl)sulfamoyl)-4-cyclopropylbenzoic acid]	< 500 nM
Cc1oncc1-c1ccc(-c2ccc(Cl)s2)c(NS(=O)(=O)c2cc(C(=O)O)ccc2C2CC2)c1 [Example 164, 3-(N-(2-(5-chlorothiophen-2-yl)-5-(5-methylisoxazol-4-yl)phenyl)sulfamoyl)-4-cyclopropylbenzoic acid]	< 500 nM
N#Cc1ccc(-c2cccnn2)c(NS(=O)(=O)c2cc(C(=O)O)ccc2C2CC2)c1 [Example 165, 3-(N-(5-cyano-2-(pyridazin-3-yl)phenyl)sulfamoyl)-4-cyclopropylbenzoic acid]	< 500 nM
N#Cc1cc(NS(=O)(=O)c2cc(C(=O)O)ccc2C2CC2)c(-c2ccc(Cl)s2)cc1F [Example 166, 3-(N-(2-(5-chlorothiophen-2-yl)-5-cyano-4-fluorophenyl)sulfamoyl)-4-cyclopropylbenzoic acid]	< 500 nM
Cc1oncc1-c1ccc(-c2cccnc2)c(NS(=O)(=O)c2cc(C(=O)O)ccc2C2CC2)c1 [Example 167, 4-cyclopropyl-3-(N-(5-(5-methylisoxazol-4-yl)-2-(pyridin-3-yl)phenyl)sulfamoyl)benzoic acid]	< 500 nM
N#Cc1ccc(-c2ccccn2)c(NS(=O)(=O)c2cc(C(=O)O)ccc2C2CCC2)c1 [Example 168, 3-(N-(5-cyano-2-(pyridin-2-yl)phenyl)sulfamoyl)-4-cyclobutylbenzoic acid]	< 500 nM
N#Cc1ccc(-c2ncccn2)c(NS(=O)(=O)c2cc(C(=O)O)ccc2C2CC2)c1 [Example 169, 3-(N-(5-cyano-2-(pyrimidin-2-yl)phenyl)sulfamoyl)-4-cyclopropylbenzoic acid]	< 500 nM
